Earlier results, collected in the PKSmart pharmacokinetics tables (Seal et al. 2025).
Where a SMILES comes first, the peptide text is derived from it. Bridges are numbered along the chain shown (N, C = ends).

Legend:
[1] = not given per row; by the article one of three: Lombardo et al. 2013, J Clin Pharmacol 53:178, doi 10.1177/0091270012440282; 'New Drugs at FDA', novel drug approvals for 2021 and 2022 (the article's reference 43); Yap, Li, Chen 2006, J Mol Graph Model 24:383, doi 10.1016; conditions: human; for clearance / Vd / half-life: in vivo; for fraction unbound: plasma
[2] = Lombardo, Berellini, Obach 2018, Drug Metab Dispos 46:1466, doi 10.1124/dmd.118.082966; conditions: human; for MRT / Vd / clearance / half-life: in vivo, iv; for fraction unbound: plasma
[3] = Lombardo et al. 2013, J Clin Pharmacol 53:178, doi 10.1177/0091270012440282; conditions: for Vd / clearance: in vivo, iv; for fraction unbound: plasma

CN1CCC[C@@H](n2nc(Cc3ccc(Cl)cc3)c3ccccc3c2=O)CC1
clearance [1]: 8.33 mL/min/kg

CO[C@]1(NC(O)=c2sc(=C(C(N)=O)C(=O)O)s2)C(=O)N2C(C(=O)O)=C(CSc3nnnn3C)CS[C@@H]21
clearance [1]: 0.63 mL/min/kg

CCN1CCC[C@@H]1CNC(=O)c1cc(S(=O)(=O)CC)ccc1OC
clearance [1]: 5.71 mL/min/kg

CCNC[C@H](O)c1ccc(O)cc1
clearance [1]: 13.6 mL/min/kg

CCN1CCN(c2ccc(Nc3cc(N(C)C(=O)Nc4c(Cl)c(OC)cc(OC)c4Cl)ncn3)cc2)CC1
Vd [1]: 26.7 L/kg
clearance [1]: 9.19 mL/min/kg
half-life [1]: 33.5 h
fraction unbound [1]: 0.03

CN1CC[C@@]23c4c5ccc(O)c4OC2C(=O)CC[C@@H]3[C@@H]1C5 (stereo partly drawn)
clearance [1]: 19.2 mL/min/kg

O=C(O)c1ccccc1Nc1cccc(C(F)(F)F)c1
clearance [1]: 1.43 mL/min/kg

CC(=O)C1CC[C@H]2[C@@H]3CC[C@H]4C[C@](C)(O)CC[C@]4(C)[C@H]3CC[C@]12C (stereo partly drawn)
half-life [1]: 34 h
fraction unbound [1]: 0.01

Nc1nc(F)nc2c1ncn2[C@@H]1O[C@@H](COP(=O)(O)O)[C@@H](O)[C@@H]1O
clearance [1]: 3.7 mL/min/kg

CC(NC(C)(C)C)C(=O)c1cccc(Cl)c1 (stereo not drawn)
clearance [1]: 36 mL/min/kg

Cc1nc2ccc(CN(C)c3ccc(C(=O)NC(CCC(=O)O)C(=O)O)s3)cc2c(=O)[nH]1 (stereo not drawn)
clearance [1]: 0.59 mL/min/kg

O=C(Cn1ccnc1[N+](=O)[O-])NCCO
clearance [1]: 1.73 mL/min/kg

Cc1cn([C@@H]2C=C[C@H](CO)O2)c(=O)[nH]c1=O
clearance [1]: 8.24 mL/min/kg

CCCC(NC(C)C(=O)N1C(C(=O)O)C[C@@H]2CCCC[C@H]21)C(=O)O (stereo partly drawn)
clearance [1]: 10.9 mL/min/kg

NCCCCC(NC(=O)C1CCCN1C(=O)C1CSSCC(NC(=O)CNC(=O)CNC(=O)CN)C(=O)NC(Cc2ccc(O)cc2)C(=O)NC(Cc2ccccc2)C(=O)NC(CCC(N)=O)C(=O)NC(CC(N)=O)C(=O)N1)C(=O)NCC(N)=O (stereo not drawn) (H-GGGCYFQNCPKG-NH2; disulfide 4-9; configuration not given here)
Vd [1]: 0.11 L/kg
clearance [1]: 7.61 mL/min/kg
half-life [1]: 0.9 h

CC(C(=O)O)c1ccc(-c2ccccc2)c(F)c1 (stereo not drawn)
clearance [1]: 0.35 mL/min/kg

Cc1cc(O)c(C(=O)NC(C(=O)NC2C(=O)N3C(C(=O)O)=C(CSc4nnnn4C)CS[C@H]23)c2ccc(O)cc2)cn1 (stereo partly drawn)
clearance [1]: 0.28 mL/min/kg

Cc1cccc(C)c1OC[C@@H](C)N
clearance [1]: 6.3 mL/min/kg

COP(=O)(OC)[C@H](O)C(Cl)(Cl)Cl
clearance [1]: 5.67 mL/min/kg

C=CC(=O)Nc1cc(Nc2ncc(C(=O)OC(C)C)c(-c3cn(C)c4ccccc34)n2)c(OC)cc1N(C)CCN(C)C
Vd [1]: 58.5 L/kg
clearance [1]: 38.3 mL/min/kg
half-life [1]: 18 h
fraction unbound [1]: 0.01

CC(C(=O)O)c1ccc2oc(-c3ccc(Cl)cc3)nc2c1 (stereo not drawn)
clearance [1]: 0.07 mL/min/kg

CO[C@]1(NC(=O)C(C(=O)O)c2ccc(O)cc2)C(=O)N2C(C(=O)O)=C(CSc3nnnn3C)CO[C@@H]21 (stereo partly drawn)
clearance [1]: 1.32 mL/min/kg

CCC1(CCC(C)C)C(=O)NC(=O)NC1=O
clearance [1]: 0.35 mL/min/kg

CCN(CC)C(=O)N[C@H]1C[C@@H]2c3cccc4[nH]cc(c34)C[C@H]2N(C)C1
clearance [1]: 16 mL/min/kg

CON=C(C(=O)NC1C(=O)N2C(C(=O)[O-])C(=C[N+]34CCC(C(N)=O)(CC3)CC4)CSC12)c1nsc(N)n1 (stereo not drawn)
Vd [1]: 0.27 L/kg
clearance [1]: 1.7 mL/min/kg

CC(C)Nc1nc2cc(Cl)c(Cl)cc2n1[C@H]1O[C@@H](CO)[C@H](O)[C@@H]1O
Vd [1]: 0.46 L/kg
clearance [1]: 0.79 mL/min/kg
half-life [1]: 4.32 h
fraction unbound [1]: 0.02

CC(=O)OCC1=C(C(=O)O)N2C(=O)C(NC(=O)CSc3ccncc3)[C@@H]2SC1 (stereo partly drawn)
clearance [1]: 6.36 mL/min/kg

Cc1cc(C=CC#N)cc(C)c1Nc1ccnc(Nc2ccc(C#N)cc2)n1
Vd [1]: 2.71 L/kg
half-life [1]: 44.5 h
fraction unbound [1]: 0.3

C=C[C@H](N)CCC(=O)O
clearance [1]: 0.74 mL/min/kg

COCc1c(C(=O)OC(C)C)ncc2[nH]c3ccc(OCc4ccccc4)cc3c12
clearance [1]: 13 mL/min/kg

CC(C)[C@@H](C)[C@@]1(C)CC[C@]2(C)[C@H]3CC[C@@H]4[C@@]5(COC[C@@]4(C)[C@@H](OC[C@](C)(N)C(C)(C)C)[C@H](n4ncnc4-c4ccncc4)C5)C3=CC[C@@]2(C)C1C(=O)O (stereo partly drawn)
Vd [1]: 10 L/kg
half-life [1]: 20 h
fraction unbound [1]: 0.01

CN(C)CCC[C@]1(c2ccc(F)cc2)OCc2cc(C#N)ccc21
clearance [1]: 5.21 mL/min/kg

NC(C(=O)NC1C(=O)N2C(C(=O)O)=C(Cl)CC[C@@H]12)c1ccccc1 (stereo partly drawn)
clearance [1]: 4.45 mL/min/kg

Nc1nnc(-c2cccc(Cl)c2Cl)c(N)n1
clearance [1]: 0.51 mL/min/kg

COCC1=C(C(=O)O)N2C(=O)C(=NC(=O)C(NOC)c3csc(N)n3)[C@H]2SC1 (stereo partly drawn)
clearance [1]: 2.38 mL/min/kg

CCCCCc1cc(O)c2c(c1)OC(C)(C)[C@H]1CCC(C)=C[C@H]21
clearance [1]: 3.33 mL/min/kg

CC(C)[N+](C)(CCOC(=O)C1c2ccccc2Oc2ccccc21)C(C)C
clearance [1]: 18.9 mL/min/kg

C[C@]12CC[C@@H]3C4=C(CC[C@H]3[C@@H]1CC[C@@H]2O)CC(=O)CC4
clearance [1]: 26.7 mL/min/kg

C[C@H]1CN(c2cc3c(cc2F)c(=O)c(C(=O)O)cn3-c2ccc(F)cc2F)CCN1
clearance [1]: 3.19 mL/min/kg

COc1cccc2c1C(=O)c1c(O)c3c(c(O)c1C2=O)C[C@](O)(C(=O)CO)C[C@@H]3O[C@@H]1C[C@H](N)[C@@H](O)[C@H](C)O1
clearance [1]: 16.5 mL/min/kg

CC(C)(C)NC[C@@H](O)c1cc(O)cc(O)c1
clearance [1]: 4 mL/min/kg

CC(=O)N1CCN(c2ccc(OC[C@@H]3CO[C@](Cn4ccnc4)(c4ccc(Cl)cc4Cl)O3)cc2)CC1
clearance [1]: 8.4 mL/min/kg

C=CC(=O)N1CCN(c2nc(=O)n(-c3c(C)ccnc3C(C)C)c3nc(-c4c(O)cccc4F)c(F)cc23)[C@@H](C)C1
Vd [1]: 3.52 L/kg
clearance [1]: 7.28 mL/min/kg
fraction unbound [1]: 0.11

Oc1ccc(CCNCCCCCCNCCc2ccccc2)cc1O
clearance [1]: 36 mL/min/kg

CN1CCC[C@@H]1c1cccnc1
clearance [1]: 18.5 mL/min/kg

CC(C)(C)NC[C@@H](O)COc1cccc2c1SCCC2
clearance [1]: 1.86 mL/min/kg

Cc1ccc(C)c(OCCCC(C)(C)C(=O)O)c1
clearance [1]: 1.7 mL/min/kg

CC(=O)Oc1cc(C(F)(F)F)ccc1C(=O)O
clearance [1]: 10.7 mL/min/kg

Cc1ncc([N+](=O)[O-])n1C[C@@H](C)O
clearance [1]: 0.4 mL/min/kg

CN[C@H]1CC[C@H](c2ccc(Cl)c(Cl)c2)c2ccccc21
clearance [1]: 38 mL/min/kg

CN1CCN(c2c(F)cc3c(=O)c(C(=O)O)cn4c3c2SCC4)CC1
clearance [1]: 0.57 mL/min/kg

CN1CCN(/C=C2/N=C3CN=C(c4ccccc4Cl)c4cc([N+](=O)[O-])ccc4N3C2=O)CC1
clearance [1]: 5.09 mL/min/kg

COC(=O)CCc1ccc(OCC(O)CNC(C)C)cc1 (stereo not drawn)
MRT [2]: 0.07 h
Vd [2]: 1.2 L/kg
clearance [2]: 290 mL/min/kg
half-life [2]: 0.15 h
fraction unbound [2]: 0.59
Vd ([3]; dog): 3.4 L/kg
clearance ([3]; dog): 1500 mL/min/kg
fraction unbound ([3]; dog): 0.62
fraction unbound ([3]; rat): 0.71

CCN(CC)CCNC(=O)c1ccc(NC(C)=O)cc1
MRT [2]: 7.9 h
Vd [2]: 1.9 L/kg
clearance [2]: 4 mL/min/kg
half-life [2]: 6.4 h
fraction unbound [2]: 0.9
Vd ([3]; dog): 1.9 L/kg
clearance ([3]; dog): 6.4 mL/min/kg
fraction unbound ([3]; dog): 0.913
Vd ([3]; rat): 2.9 L/kg
clearance ([3]; rat): 28 mL/min/kg
fraction unbound ([3]; rat): 0.58

NC(Cc1ccc(O)c(O)c1)C(=O)O (stereo not drawn)
MRT [2]: 1.2 h
Vd [2]: 1.7 L/kg
clearance [2]: 23 mL/min/kg
half-life [2]: 1.3 h
fraction unbound [2]: 0.76
Vd ([3]; dog): 0.76 L/kg
clearance ([3]; dog): 23.7 mL/min/kg
clearance ([3]; rat): 109 mL/min/kg

COC(=O)C1=C(C)NC(C)=C(C(=O)OC)C1c1ccccc1[N+](=O)[O-]
half-life [2]: 1.9 h
Vd ([3]; dog): 1.15 L/kg
Vd ([3]; rat): 0.27 L/kg
fraction unbound ([3]; rat): 0.035

CCCN1CCCCC1C(=O)Nc1c(C)cccc1C (stereo not drawn)
MRT [2]: 2.3 h
Vd [2]: 0.75 L/kg
clearance [2]: 5.5 mL/min/kg
half-life [2]: 2.2 h
fraction unbound [2]: 0.06
Vd ([3]; dog): 1.42 L/kg
clearance ([3]; dog): 30 mL/min/kg

Nc1ccn(C[C@@H](CO)OCP(=O)(O)O)c(=O)n1
MRT [2]: 3.3 h
Vd [2]: 0.49 L/kg
clearance [2]: 2.5 mL/min/kg
half-life [2]: 2.6 h
Vd ([3]; monkey): 0.8 L/kg
clearance ([3]; monkey): 3.5 mL/min/kg
Vd ([3]; rat): 2 L/kg
clearance ([3]; rat): 0.7 mL/min/kg
fraction unbound ([3]; rat): 1

CC1(C)S[C@@H]2C(NC(=O)C(N)c3ccccc3)C(=O)N2C1C(=O)O (stereo partly drawn)
MRT [2]: 1.3 h
Vd [2]: 0.22 L/kg
clearance [2]: 2.8 mL/min/kg
half-life [2]: 1.4 h
Vd ([3]; dog): 0.58 L/kg
clearance ([3]; dog): 9.1 mL/min/kg
fraction unbound ([3]; dog): 0.58
Vd ([3]; rat): 1.1 L/kg
clearance ([3]; rat): 19 mL/min/kg
fraction unbound ([3]; rat): 0.6

Cc1nc2n(c(=O)c1CCN1CCC(c3noc4cc(F)ccc34)CC1)CCCC2
half-life [2]: 3.2 h
fraction unbound ([3]; dog): 0.083
fraction unbound ([3]; monkey): 0.084
Vd ([3]; rat): 3.6 L/kg
clearance ([3]; rat): 71.7 mL/min/kg
fraction unbound ([3]; rat): 0.118

NC(=O)c1csc([C@@H]2O[C@H](CO)[C@@H](O)[C@H]2O)n1
MRT [2]: 7.6 h
Vd [2]: 1.1 L/kg
half-life [2]: 5.9 h
fraction unbound [2]: 0.47
Vd ([3]; dog): 0.99 L/kg
fraction unbound ([3]; dog): 0.85
Vd ([3]; monkey): 2 L/kg
fraction unbound ([3]; monkey): 1
